The values that follow are results of earlier work, collected in patent US7115654B2, “Caspase-1 inhibitors and methods for their use” (Sunesis Pharmaceuticals, Inc., priority 2002, dated 2006).

The data set concerns embryonic nigral cell suspension.

For Ac-YVAD-cmk, the functional recovery entry (hemiparkinsonian rats) was “substantially improved”. The “survival of dopaminergic neurons” value (neurons grafted to hemiparkinsonian rats) is “increased”. Besides, under “treatment of the embryonic nigral cell suspension”, the apoptosis in transplants entry was “reduced”. For the same substance, the DNA fragmentation entry (treatment of the embryonic nigral cell suspension, in transplants) is recorded as “mitigated”.
